Reference: patent US6673827B1, “Methods of treating fungal infections with inhibitors of NAD synthetase enzyme” (priority 1999, dated 2004)
Read-outs that look alike come from different tables or passages of the source.

Key:
[1] = tested on: Torulopsis glabrata JHC-BC9951635; assay: In vitro study of inhibition of growth and lethality against yeast (MIC/MLC susceptibility test), isolate E; format: cell-based; conditions: Torulopsis glabrata, 2nd pair of lines, isolate assigned by line order
[2] = tested on: Candida tropicalis (ATCC 28707-amphotericin B-resistant); assay: Minimum Inhibitory Concentration (MIC) against yeast, broth dilution; format: cell-based; conditions: Candida tropicalis, ATCC28707, 37° C., 20 hours, mean of duplicate
[3] = tested on: Candida tropicalis ATCC 750; assay: In vitro study of inhibition of growth and lethality against yeast (MIC/MLC susceptibility test), isolate A; format: cell-based; conditions: Candida tropicalis, 2nd pair of lines, isolate assigned by line order
[4] = tested on: Cryptococcus neoformans DLB-1027594CNC; assay: In vitro study of inhibition of growth and lethality against yeast (MIC/MLC susceptibility test), isolate G; format: cell-based; conditions: Cryptococcus neoformans, 1st pair of lines, isolate assigned by line order
[5] = target: T1, NAD synthetase (recombinant protein from B. subtilis; purified) (Bacillus subtilis, UniProt P08164); assay: NAD synthetase enzyme inhibition assay (coupled enzymatic assay, HTS); format: biochemical
T1 construct: made in house
T1 sequence (P08164 whole entry): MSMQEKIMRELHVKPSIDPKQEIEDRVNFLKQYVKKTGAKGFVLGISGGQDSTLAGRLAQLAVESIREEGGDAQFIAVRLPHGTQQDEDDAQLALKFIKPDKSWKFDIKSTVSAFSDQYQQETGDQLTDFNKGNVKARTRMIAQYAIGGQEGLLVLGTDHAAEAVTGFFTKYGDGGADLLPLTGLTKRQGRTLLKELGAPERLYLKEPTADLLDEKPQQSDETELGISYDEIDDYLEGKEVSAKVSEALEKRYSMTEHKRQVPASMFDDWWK

[6] = In vivo toxicity: intraperitoneal (IP) dosage in mice resulting in 50% lethality (LD50); conditions: mouse, in vivo; male CD-1 mice, single IP dose, observed 14 days
[7] = tested on: Candida albicans (ATCC 10231); assay: Minimum Inhibitory Concentration (MIC) against yeast, broth dilution; format: cell-based; conditions: Candida albicans, ATCC10231; 37° C., 20 hours, mean of duplicate; read-out: MIC Candida albicans (ATCC 10231)
[8] = tested on: Candida albicans LH-000664533; assay: In vitro study of inhibition of growth and lethality against yeast (MIC/MLC susceptibility test), isolate D; format: cell-based; conditions: Candida albicans, Candida albicans, 2nd pair of lines, isolate assigned by line order
[9] = tested on: Candida tropicalis ATCC 28707; assay: In vitro study of inhibition of growth and lethality against yeast (MIC/MLC susceptibility test), isolate B; format: cell-based; conditions: Candida tropicalis, 1st pair of lines, isolate assigned by line order
[10] = tested on: Torulopsis glabrata ERH-BC9938274; assay: In vitro study of inhibition of growth and lethality against yeast (MIC/MLC susceptibility test), isolate F; format: cell-based; conditions: Nakaseomyces glabratus, Torulopsis glabrata, 1st pair of lines, isolate assigned by line order
[11] = tested on: Cryptococcus neoformans SLP-BC0012854; assay: In vitro study of inhibition of growth and lethality against yeast (MIC/MLC susceptibility test), isolate H; format: cell-based; conditions: Cryptococcus neoformans, 2nd pair of lines, isolate assigned by line order
[12] = tested on: Candida tropicalis (ATCC 750); assay: Minimum Inhibitory Concentration (MIC) against yeast, broth dilution; format: cell-based; conditions: Candida tropicalis, ATCC750; 37° C., 20 hours, mean of duplicate
[13] = tested on: Candida albicans KJP-000531594; assay: In vitro study of inhibition of growth and lethality against yeast (MIC/MLC susceptibility test), isolate C; format: cell-based; conditions: Candida albicans, Candida albicans, 1st pair of lines

COC(=O)c1cc2cc(OCc3ccccc3)ccc2n1CCCCCCCOC(=O)Cc1ccc([N+](C)(C)C)cc1.[I-] [Compound 988]
MIC ([1]; Nakaseomyces glabratus, JHCBC9951635, 24 h, read at 24 hr, read-out: Minimum Inhibitory Conc. (MIC), 24 hr.): 1 µg/mL | MIC ([1]; Nakaseomyces glabratus, JHCBC9951635, 48 h, read at 48 hr, read-out: Minimum Inhibitory Conc. (MIC), 48 hr.): 2 µg/mL | MFC ([1]; Nakaseomyces glabratus, JHCBC9951635, read-out: Minimum Lethal Conc. (MLC)): 2 µg/mL | Minimum Inhibitory Conc. (MIC), 24 hr. ([1]; read at 24 hr): 2 µg/mL | MIC [2]: 0.15 µg/mL | MFC ([3]; ATCC750, read-out: Minimum Lethal Conc. (MLC)): 1 µg/mL | MIC ([3]; ATCC750, 24 h, read at 24 hr, read-out: Minimum Inhibitory Conc. (MIC), 24 hr.): 1 µg/mL | MIC ([3]; ATCC750, 48 h, read at 48 hr, read-out: Minimum Inhibitory Conc. (MIC), 48 hr.): 1 µg/mL | Minimum Inhibitory Conc. (MIC), 72 hr. ([4]; read at 72 hr): 2 µg/mL | MIC ([4]; DLB1027594CNC, 48 h, read at 48 hr, read-out: Minimum Inhibitory Conc. (MIC), 48 hr.): 1 µg/mL | MIC ([4]; DLB1027594CNC, 72 h, read at 72 hr, read-out: Minimum Inhibitory Conc. (MIC), 72 hr.): 1 µg/mL | MFC ([4]; DLB1027594CNC, read-out: Minimum Lethal Conc. (MLC)): 4 µg/mL | IC50 [5]: 10 µM | IC50 ([5]; IC50 (μg/mL) for Inhibit. of NAD Synthetase, table of structures used in the yeast assay (Example 4)): 14.3 µM | LD50 at 14 days [6]: 135 mg/kg | MIC [7]: 0.1 µg/mL | MIC ([8]; LH000664533, 24 h, read at 24 hr, read-out: Minimum Inhibitory Conc. (MIC), 24 hr.): 1 µg/mL | MIC ([8]; LH000664533, 48 h, read at 48 hr, read-out: Minimum Inhibitory Conc. (MIC), 48 hr.): 2 µg/mL | MFC ([8]; LH000664533, read-out: Minimum Lethal Conc. (MLC)): 2 µg/mL | MFC ([9]; ATCC28707, read-out: Minimum Lethal Conc. (MLC)): 1 µg/mL | Minimum Inhibitory Conc. (MIC), 24 hr. ([9]; read at 24 hr): 1 µg/mL | Minimum Inhibitory Conc. (MIC), 48 hr. ([9]; read at 48 hr): 1 µg/mL | MIC ([9]; ATCC28707, 24 h, read at 24 hr, read-out: Minimum Inhibitory Conc. (MIC), 24 hr.): 0.5 µg/mL | MIC ([9]; ATCC28707, 48 h, read at 48 hr, read-out: Minimum Inhibitory Conc. (MIC), 48 hr.): 0.5 µg/mL | MIC ([10]; ERHBC9938274, 24 h, read at 24 hr, read-out: Minimum Inhibitory Conc. (MIC), 24 hr.): 2 µg/mL | MIC ([10]; ERHBC9938274, 48 h, read at 48 hr, read-out: Minimum Inhibitory Conc. (MIC), 48 hr.): 2 µg/mL | MFC ([10]; ERHBC9938274, read-out: Minimum Lethal Conc. (MLC)): 2 µg/mL | Minimum Inhibitory Conc. (MIC), 72 hr. ([11]; read at 72 hr): 2 µg/mL | MIC ([11]; SLPBC0012854, 48 h, read at 48 hr, read-out: Minimum Inhibitory Conc. (MIC), 48 hr.): 1 µg/mL | MIC ([11]; SLPBC0012854, 72 h, read at 72 hr, read-out: Minimum Inhibitory Conc. (MIC), 72 hr.): 1 µg/mL | MFC ([11]; SLPBC0012854, read-out: Minimum Lethal Conc. (MLC)): 4 µg/mL | MIC [12]: 0.024 µg/mL | MIC ([13]; KJP000531594, 24 h, read at 24 hr, isolate not given, assigned by line order and MLC of Table 4B, read-out: Minimum Inhibitory Conc. (MIC), 24 hr.): 1 µg/mL | MIC ([13]; KJP000531594, 48 h, read at 48 hr, isolate assigned by line order, read-out: Minimum Inhibitory Conc. (MIC), 48 hr.): 1 µg/mL | MFC ([13]; KJP000531594, isolate assigned by line order, read-out: Minimum Lethal Conc. (MLC)): 1 µg/mL
